Earlier results, collected in paper PMC5693942 (Scientific Reports, 2017).
Where two headings read alike, the source gives them in different places.

Details: cited from earlier work

| Compound | excreted in the urine as this species (after FL, ref [3]) [%] | excreted in the urine as this species (in vivo) [%] |
| --- | --- | --- |
| O=C(O)CNC(=O)c1ccccc1 [hippuric acid] | > 20 |  |
| FL glucuronide |  | 7.4 |
| NFL glucuronide |  | 8.2 |
